According to patent US20050181450A1, “Novel inositol 1,4,5-trisphosphate (IP3) receptor-binding protein and an IP3 indicator” (priority 2002, published 2005):
Each block holds one compound with its values, some of them ahead of it.

How the values were obtained:
[1] = target: T1, IRBIT bound to GST-EL (mouse IP3R1 amino acids 1-2217) (Mus musculus, UniProt P11881, N1264K); assay: Dissociation of IRBIT from GST-EL by eluants (pulldown, immunoblot quantification); assay type: binding
T1 construct: construct a GST-IP3R1 (1-2217) vector (termed GST-EL); made in house; host or cells: Sf9 cells (baculovirus) for GST-EL; IRBIT from mouse cerebellum tissue extract
T1 sequence (P11881 1-2217 N1264K): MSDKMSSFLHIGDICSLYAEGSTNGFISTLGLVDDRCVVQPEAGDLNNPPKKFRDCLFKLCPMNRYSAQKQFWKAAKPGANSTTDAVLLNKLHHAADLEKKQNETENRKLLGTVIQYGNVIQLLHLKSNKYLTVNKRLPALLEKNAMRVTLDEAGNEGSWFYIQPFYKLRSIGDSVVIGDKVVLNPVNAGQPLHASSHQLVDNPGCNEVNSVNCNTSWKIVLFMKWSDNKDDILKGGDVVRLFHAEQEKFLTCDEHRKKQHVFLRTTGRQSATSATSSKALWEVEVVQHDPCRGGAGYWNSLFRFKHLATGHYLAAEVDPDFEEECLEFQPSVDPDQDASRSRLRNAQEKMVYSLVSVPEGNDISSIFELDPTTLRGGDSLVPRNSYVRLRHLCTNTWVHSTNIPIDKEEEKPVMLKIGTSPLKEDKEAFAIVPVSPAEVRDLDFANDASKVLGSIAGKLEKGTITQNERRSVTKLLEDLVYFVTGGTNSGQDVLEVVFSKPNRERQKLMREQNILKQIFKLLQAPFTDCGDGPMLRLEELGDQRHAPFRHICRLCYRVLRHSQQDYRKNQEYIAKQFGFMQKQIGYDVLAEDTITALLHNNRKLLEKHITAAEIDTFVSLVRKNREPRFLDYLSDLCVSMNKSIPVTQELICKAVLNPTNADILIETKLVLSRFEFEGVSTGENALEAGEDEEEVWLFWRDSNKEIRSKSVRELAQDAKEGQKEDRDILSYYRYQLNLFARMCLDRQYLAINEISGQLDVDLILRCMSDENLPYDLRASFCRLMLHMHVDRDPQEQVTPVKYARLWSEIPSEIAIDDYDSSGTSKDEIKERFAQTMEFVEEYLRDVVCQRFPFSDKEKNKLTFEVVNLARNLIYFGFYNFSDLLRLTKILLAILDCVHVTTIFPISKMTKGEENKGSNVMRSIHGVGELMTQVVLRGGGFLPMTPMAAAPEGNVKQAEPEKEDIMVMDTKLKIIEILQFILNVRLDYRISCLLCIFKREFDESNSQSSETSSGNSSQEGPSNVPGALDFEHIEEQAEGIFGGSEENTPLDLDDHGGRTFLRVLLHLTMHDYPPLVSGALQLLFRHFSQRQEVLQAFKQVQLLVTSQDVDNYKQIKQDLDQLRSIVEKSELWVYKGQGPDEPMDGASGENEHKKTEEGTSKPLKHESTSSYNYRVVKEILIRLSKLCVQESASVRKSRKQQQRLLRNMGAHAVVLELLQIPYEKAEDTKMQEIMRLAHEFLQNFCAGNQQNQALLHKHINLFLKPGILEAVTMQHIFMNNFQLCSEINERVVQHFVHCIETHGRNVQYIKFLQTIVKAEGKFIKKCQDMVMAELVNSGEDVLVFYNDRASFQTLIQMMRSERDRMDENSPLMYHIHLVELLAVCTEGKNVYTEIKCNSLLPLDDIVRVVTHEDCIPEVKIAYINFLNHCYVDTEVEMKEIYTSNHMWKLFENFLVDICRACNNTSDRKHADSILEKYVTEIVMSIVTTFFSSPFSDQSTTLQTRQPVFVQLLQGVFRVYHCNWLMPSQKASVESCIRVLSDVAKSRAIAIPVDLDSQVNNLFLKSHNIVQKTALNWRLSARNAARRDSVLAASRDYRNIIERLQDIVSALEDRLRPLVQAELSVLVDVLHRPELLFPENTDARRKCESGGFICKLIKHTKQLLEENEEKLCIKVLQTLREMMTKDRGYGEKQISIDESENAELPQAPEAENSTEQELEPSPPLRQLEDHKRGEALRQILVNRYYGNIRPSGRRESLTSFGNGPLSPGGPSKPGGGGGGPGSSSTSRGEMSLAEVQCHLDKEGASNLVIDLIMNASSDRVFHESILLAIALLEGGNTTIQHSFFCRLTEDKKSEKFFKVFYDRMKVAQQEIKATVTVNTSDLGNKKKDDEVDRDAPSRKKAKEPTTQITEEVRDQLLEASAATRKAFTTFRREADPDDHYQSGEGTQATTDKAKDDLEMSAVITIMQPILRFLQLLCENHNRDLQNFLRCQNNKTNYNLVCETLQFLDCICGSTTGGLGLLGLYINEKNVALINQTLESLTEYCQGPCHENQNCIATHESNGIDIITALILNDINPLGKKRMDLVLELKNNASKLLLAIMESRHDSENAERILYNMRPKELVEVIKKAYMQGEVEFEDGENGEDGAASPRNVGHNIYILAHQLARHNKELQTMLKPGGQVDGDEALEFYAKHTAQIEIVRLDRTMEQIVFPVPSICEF
Description: Bound proteins were pulled down with glutathione-Sepharose, and eluted with glutathione (Glu) (a) or 0.1 to 10 μM IP3 (a), IP2 (b), IP4 (c), IP6 (d), or ATP (e). IRBIT in the extract was analyzed with anti-IRBIT antibody and Alexa 680-conjugated secondary antibody (“a” (lower panel) and panels “b” to “e”). GST-EL in the glutathione and 0.1 to 10 μM IP3 eluate was analyzed with anti-GST antibody (a, upper panel). […] The relative intensity was plotted against the concentration of an eluant. Results are shown as the mean±standard deviation from at least three independent experiments.
For dissociation experiments, IRBIT in the diluted high salt extract was pulled down with GST-EL for precipitation and washed as described above. To resins, 100 μl of a wash buffer containing IP3, inositol 4,5-bisphosphate (IP2) (Dojindo), inositol 1,3,4,5-tetrakisphosphate (IP4) (Calbiochem), inositol 1,2,3,4,5,6-hexakisphosphate (IP6) (Calbiochem) or ATP (Amersham Pharmacia Biotech) (0.1, 0.3, 1, 3 or 10 μM) were added. After incubation on ice for 10 minutes, samples were centrifuged at 10,000 rpm for 1 minute, and the supernatant was subjected to immunoblot analysis with anti-IRBIT antibody or goat anti-GST antibody (Amersham Pharmacia Biotech). For quantification, Alexa 680-conjugated goat anti-rabbit IgG (Molecular Probes) was used as a secondary antibody. The fluorescence intensity of the immunoreactive bands of IRBIT was measured using the Odyssey infrared imaging system (Aloka). Quantitative data (the mean±SD from at least three independent experiments) is expressed as a percentage of the amount of IRBIT in 10 μM IP3 eluate.
IRBIT in the high salt extract from the mouse cerebellar crude microsome was trapped with GST-EL. Then elution was attempted with 0.1 to 10 μM IP3, and other inositolpolyphosphates, IP2, IP4, IP6 or ATP. […] It was confirmed that GST-EL was not detected (FIG. 8Aa, upper panel), even with longer exposure. […]

[2] = target: N-terminal region of IP3R1 (amino acids 1-604) (Mus musculus, UniProt P11881); conditions: cited from earlier work
Chain of N-terminal region of IP3R1 (amino acids 1-604) (P11881 1-604): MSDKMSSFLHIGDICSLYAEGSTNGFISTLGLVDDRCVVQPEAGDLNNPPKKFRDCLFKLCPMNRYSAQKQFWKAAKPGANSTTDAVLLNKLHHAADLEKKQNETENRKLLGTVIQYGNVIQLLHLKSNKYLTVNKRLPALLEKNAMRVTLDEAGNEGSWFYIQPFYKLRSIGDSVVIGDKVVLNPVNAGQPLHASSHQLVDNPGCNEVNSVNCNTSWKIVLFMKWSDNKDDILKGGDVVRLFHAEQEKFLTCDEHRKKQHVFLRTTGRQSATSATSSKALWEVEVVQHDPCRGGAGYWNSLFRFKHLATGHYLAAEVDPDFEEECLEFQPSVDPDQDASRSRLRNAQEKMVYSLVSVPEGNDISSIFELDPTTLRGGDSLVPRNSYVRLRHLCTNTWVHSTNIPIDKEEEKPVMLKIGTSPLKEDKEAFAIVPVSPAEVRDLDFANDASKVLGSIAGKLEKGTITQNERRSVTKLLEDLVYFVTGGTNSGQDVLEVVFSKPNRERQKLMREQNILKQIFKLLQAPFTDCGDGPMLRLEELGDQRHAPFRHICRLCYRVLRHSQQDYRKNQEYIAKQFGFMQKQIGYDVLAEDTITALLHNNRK

[3] = target: T2, GST-EL (mouse IP3R1 amino acids 1-2217) (Mus musculus, UniProt P11881, N1264K); assay: GST pulldown with GST-EL; assay type: binding; conditions: GFP fusion proteins in Cos-7 cell lysates
T2 construct: construct a GST-IP3R1 (1-2217) vector (termed GST-EL); made in house; host or cells: Sf9 cells (baculovirus)
T2 sequence (P11881 1-2217 N1264K): as the sequence (P11881 1-2217 N1264K) above
Description: Mouse cerebellar cytosolic fraction was diluted 2-fold with 10 mM Hepes (pH 7.4), 200 mM NaCl, 2 mM EDTA, 1 mM 2-ME and 0.02% Triton X-100. The high salt extract was diluted 5-fold with 10 mM Hepes (pH 7.4), 2 mM EDTA, 1 mM 2-ME and 0.01% Triton X-100. The diluted fractions (the final NaCl concentration of both fractions was 100 mM) were incubated with 20 μg of GST-EL or GST for 2 hours at 4° C. After adding 10 μl of glutathione-Sepharose and another 2 hours of incubation, the resins were washed 5 times with a wash buffer (10 mM Hepes (pH 7.4), 100 mM NaCl, 2 mM EDTA, 1 mM 2-ME, and 0.01% Triton X-100), and bound proteins were eluted with 20 mM glutathione.
The eluted proteins were analyzed by Western blotting with anti-IRBIT antibody. For dephosphorylation, the diluted high salt extract was incubated in the presence of or the absence of Escherichia coli alkaline phosphatase (Toyobo) with 2 mM MgCl2 for 30 minutes at 37° C. 5 mM EDTA was added, and then the resultant was subjected to pulldown assay as described above.
For the determination of the IP3R1-interacting region of IRBIT, Cos-7 cells expressing GFP-tagged full-length IRBIT or its truncated mutants were lysed in a lysis buffer (10 mM Hepes (pH7.4), 100 mM NaCl, 2 mM EDTA, 1 mM 2-ME, 0.5% Nonidet P-40, and protease inhibitor) for 30 minutes at 4° C., followed by centrifugation (100,000×g, 30 minutes). The supernatants were subjected to pulldown assay with GST-EL or GST as described above, and bound proteins were subjected to immunoblot analysis with anti-GFP antibody (Medical & Biological Laboratories).

Compound: Nc1ncnc2c1ncn2[C@@H]1O[C@H](COP(=O)(O)OP(=O)(O)OP(=O)(O)O)[C@@H](O)[C@H]1O [ATP]
dissociation of IRBIT from GST-EL ([1]; 10 μM eluant): did not dissociate

Compound: O=P(O)(O)O[C@@H]1[C@H](O)[C@H](O)[C@@H](OP(=O)(O)O)[C@H](OP(=O)(O)O)[C@H]1O [IP3, inositol 1,4,5-trisphosphate]
affinity lower than the Kd value determined by a conventional assay ([2]; pH 7.4 and 150 mM NaCl versus conventional assay): approximately 7.5 fold | Kd ([2]; physiological conditions (pH 7.4 and 150 mM NaCl), read-out: Kd of IP3 binding): 336 nM | EC50 ([1]; pH 7.4 and 100 mM NaCl, IRBIT from mouse cerebellar high salt extract, read-out: EC50 (IP3 concentration required for half (50%)-maximal dissociation of IRBIT from GST-EL)): ~500 nM | dissociation efficiency relative to other inositol polyphosphates ([1]; versus IP2, IP4, IP6): approximately 50 times

Compound: GFP-IRBIT (1 to 277): GFP-tagged deletion mutant of IRBIT, amino acids 1-277
interaction with GST-EL [3]: bound to GST-EL efficiently

Compound: GFP-IRBIT (1-104): GFP-tagged deletion mutant of IRBIT, amino acids 1-104 (N-terminal region)
interaction with GST-EL [3]: much weaker

Results, then the compound that gave them:

interaction with GST-EL [3]: did not interact with GST-EL
Compound: GFP-IRBIT (105-530): GFP-tagged deletion mutant of IRBIT, amino acids 105-530, lacking the N-terminal region

interaction with GST-EL [3]: bound to GST-EL efficiently
Compound: GFP-IRBIT: GFP-tagged full-length IRBIT expressed in Cos-7 cells
